Measurements from patent US8114894B2, “Bicyclic compounds and methods of making and using same” (Nanotherapeutics, Inc., priority 2008, dated 2012).
Structures can show the parent of a compound that is named as a salt.

Biological target: T1, human 5-HT4e receptor (Homo sapiens, UniProt Q13639)
T1 construct: expressed in transfected cells; host or cells: CHO cells
Test: Binding affinity assay, radioligand [3H]GR 113808 binding in transfected CHO cell membrane homogenates
Conditions: 0.3 nM [3H]GR 113808; for Ki: human 5-HT4e receptor in transfected CHO cells, read-out: KI (μM or % inhibition); for inhibition at 0.3 µM: @ 0.3 uM test compound; for inhibition at 0.3 µM / inhibition at 3 µM: read-out: KI (μM or % inhibition): percent inhibition of the control radioligand specific binding; for inhibition at 3 µM: @ 3 uM test compound
Procedure: The evaluation of the affinity of compounds for the human 5-HT4e receptor in transfected CHO cells was determined in a radioligand binding assay. Experimental protocol: Cell membrane homogenates (140 μg protein) were incubated for […] at 37° C. with 0.3 nM [3H]GR 113808 in the absence or presence of the test compound in a buffer containing 50 mM Hepes/Tris (pH 7.4) and 1 μM pargyline. Nonspecific binding was determined in the presence of 100 μM 5-HT. Following incubation, the samples were filtered rapidly under vacuum through glass fiber filters (GF/B, Packard) presoaked with 0.3% PEI and rinsed several times with ice-cold 50 mM Tris-HCl using a 96-sample cell harvester (Unifilter, Packard). The filters were dried then counted for radioactivity in a scintillation counter (Topcount, Packard) using a scintillation cocktail (Microscint 0, Packard). The results are expressed as a percent inhibition of the control radioligand specific binding at a certain concentration of the test compound. The test compound can also be assessed at several concentrations to obtain a competition curve from which its IC50 and Ki are calculated.

T1 sequence (Q13639 1-378 isoform Q13639-5): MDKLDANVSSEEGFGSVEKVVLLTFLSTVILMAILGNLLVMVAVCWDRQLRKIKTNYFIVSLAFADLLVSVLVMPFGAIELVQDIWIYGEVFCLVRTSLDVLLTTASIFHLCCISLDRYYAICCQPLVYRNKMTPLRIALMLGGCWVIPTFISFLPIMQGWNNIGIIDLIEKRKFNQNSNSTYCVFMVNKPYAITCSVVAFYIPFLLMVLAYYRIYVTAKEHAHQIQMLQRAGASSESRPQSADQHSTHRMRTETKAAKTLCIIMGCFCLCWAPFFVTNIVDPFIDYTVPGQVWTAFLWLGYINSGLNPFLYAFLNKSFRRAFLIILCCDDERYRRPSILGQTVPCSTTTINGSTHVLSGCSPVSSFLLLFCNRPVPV

| Structure (SMILES) | Ki [µM] | inhibition at 0.3 µM [%] | inhibition at 3 µM [%] |
| --- | --- | --- | --- |
| CC(C)n1cc(C(=O)C(=O)NCCN2CCCCC2)c2ccc(N)cc21 [Example 8, 2-(6-Amino-1-isopropyl-1H-indol-3-yl)-2-oxo-N-(2-(piperidin-1-yl)ethyl)acetamide hydrochloride] | 0.75 |  |  |
| CC(C)n1cc(C(=O)C(=O)NCCN2CCCCC2)c2cccnc21 [Example 17, 2-(1-Isopropyl-1H-pyrrolo[2,3-b]pyridin-3-yl)-2-oxo-N-(2-(piperidin-1-yl)ethyl)acetamide] | 0.022 |  |  |
| CCC(C)n1cc(C(=O)C(=O)NCCN2CCCCC2)c2ccccc21 (centres unmarked) [Example 5, 2-(1-sec-Butyl-1H-indol-3-yl)-2-oxo-N-(2-(piperidin-1-yl)ethyl)acetamide hydrochloride] | 0.031 |  |  |
| CC(C)n1cc(C(=O)C(=O)NCCN2CCC(CCO)CC2)c2ccccc21 [Example 22, N-(2-(4-(2-Hydroxyethyl)piperidin-1-yl)ethyl)-2-(1-isopropyl-1H-indol-3-yl)-2-oxoacetamide hydrochloride] |  | 99 | 101 |
| CC(C)CN1CCC(CNC(=O)C(=O)c2cn(C(C)C)c3ccccc23)CC1 [Example 15, N-((1-Isobutylpiperidin-4-yl)methyl)-2-(1-isopropyl-1H-indol-3-yl)-2-oxoacetamide] | 0.016 |  |  |
| CC(C)n1cc(C(=O)C(=O)NCCN2CCC(C(F)(F)F)CC2)c2ccccc21 [Example 16, 2-(1-Isopropyl-1H-indol-3-yl)-2-oxo-N-(2-(4-(trifluoromethyl)piperidin-1-yl)ethyl)acetamide] | 0.023 |  |  |
| CC(C)n1cc(C(=O)C(=O)NCCN2CCCCC2)c2cc(Cl)ccc21 [Example 6, 2-(5-Chloro-1-isopropyl-1H-indol-3-yl)-2-oxo-N-(2-(piperidin-1-yl)ethyl)acetamide hydrochloride] | 0.047 |  |  |
| CCCC1CCN(CCNC(=O)C(=O)c2cn(C(C)C)c3ccccc23)CC1 [Example 18, 2-(1-Isopropyl-1H-indol-3-yl)-2-oxo-N-(2-(4-propylpiperidin-1-yl)ethyl)acetamide TFA salt] |  | 99 | 102 |
| COCCCN1CCC(NC(=O)C(=O)c2cn(C(C)C)c3ccccc23)CC1 [Example 20, 2-(1-Isopropyl-1H-indol-3-yl)-N-(1-(3-methoxypropyl)piperidin-4-yl)-2-oxoacetamide TFA salt] | 0.0069 |  |  |
| CC(C)n1cc(C(=O)C(=O)NC2CCN(CCNS(C)(=O)=O)CC2)c2ccccc21 [Example 21, 2-(1-Isopropyl-1H-indol-3-yl)-N-(1-(2-(methylsulfonamido)ethyl)piperidin-4-yl)-2-oxoacetamide TFA salt] |  | 95 | 101 |
| CCN(CC)CCNC(=O)C(=O)c1cn(C(C)C)c2ccccc12 [Example 3, N-(2-(Diethylamino)ethyl)-2-(1-isopropyl-1H-indol-3-yl)-2-oxoacetamide hydrochloride] | 0.008 |  |  |
| CCn1cc(C(=O)C(=O)NCCN2CCCCC2)c2ccccc21 [Example 4, 2-(1-Ethyl-1H-indol-3-yl)-2-oxo-N-(2-(piperidin-1-yl)ethyl)acetamide hydrochloride] | 0.005 |  |  |
| CC(C)n1cc(C(=O)C(=O)NCCN2CCCCC2)c2ccc(N)c(Cl)c21 [Example 9, 2-(6-Amino-7-chloro-1-isopropyl-1H-indol-3-yl)-2-oxo-N-(2-(piperidin-1-yl)ethyl)acetamide hydrochloride] | 0.1 |  |  |
| CC(C)n1cc(C(=O)C(=O)NCCN2CCCC2)c2ccccc21 [Example 10, 2-(1-Isopropyl-1H-indol-3-yl)-2-oxo-N-(2-(pyrrolidin-1-yl)ethyl)acetamide] | 0.013 |  |  |
| CCCN1CCC(NC(=O)C(=O)c2cn(C(C)C)c3ccccc23)CC1 [Example 14, 2-(1-Isopropyl-1H-indol-3-yl)-2-oxo-N-(1-propylpiperidin-4-yl)acetamide] | 0.0027 |  |  |
| CCCCC1CCN(CCNC(=O)C(=O)c2cn(C(C)C)c3ccccc23)CC1 [Example 24, N-(2-(4-Butylpiperidin-1-yl)ethyl)-2-(1-isopropyl-1H-indol-3-yl)-2-oxoacetamide] |  | 95 | 101 |
| COc1ccc2c(c1)c(C(=O)C(=O)NCCN1CCCCC1)cn2C(C)C [Example 11, 2-(1-Isopropyl-5-methoxy-1H-indol-3-yl)-2-oxo-N-(2-(piperidin-1-yl)ethyl)acetamide] | 0.31 |  |  |
| CC(C)n1cc(C(=O)C(=O)NCCN2CCCCC2)c2ccc([N+](=O)[O-])cc21 [Example 7, 2-(1-Isopropyl-6-nitro-1H-indol-3-yl)-2-oxo-N-(2-(piperidin-1-yl)ethyl)acetamide hydrochloride] | 2.7 |  |  |
| CC(C)n1cc(C(=O)C(=O)NC2CCN(CCCO)CC2)c2ccccc21 [Example 13, N-(1-(3-Hydroxypropyl)piperidin-4-yl)-2-(1-isopropyl-1H-indol-3-yl)-2-oxoacetamide] | 0.0024 |  |  |
| CCCCN1CCC(NC(=O)C(=O)c2cn(C(C)C)c3ccccc23)CC1 [Example 19, N-(1-Butylpiperidin-4-yl)-2-(1-isopropyl-1H-indol-3-yl)-2-oxoacetamide] | 0.0025 |  |  |
| CC(C)n1cc(C(=O)C(=O)NCCCN2CCCCC2)c2ccccc21 [Example 1, 2-(1-Isopropyl-1H-indol-3-yl)-2-oxo-N-(3-(piperidin-1-yl)propyl)acetamide hydrochloride] | 0.007 |  |  |
| Cc1ccc2c(c1)c(C(=O)C(=O)NCCN1CCCCC1)cn2C(C)C [Example 12, 2-(1-isopropyl-5-methyl-1H-indol-3-yl)-2-oxo-N-(2-(piperidin-1-yl)ethyl)acetamide] | 0.071 |  |  |
| CCC1CCN(CCNC(=O)C(=O)c2cn(C(C)C)c3ccccc23)CC1 [Example 23, N-(2-(4-ethylpiperidin-1-yl)ethyl)-2-(1-isopropyl-1H-indol-3-yl)-2-oxoacetamide hydrochloride] |  | 99 | 101 |
| CC(C)n1cc(C(=O)C(=O)NCCN2CCCCC2)c2ccccc21 [Example 2, 2-(1-Isopropyl-1H-indol-3-yl)-2-oxo-N-(2-(piperidin-1-yl)ethyl)acetamide hydrochloride] | 0.005 |  |  |
